Results published in US8003649B2 (AstraZeneca AB, priority 2007, dated 2011).

Molecular target: T1, Androgen Receptor (AR) (Homo sapiens, UniProt P10275, T878A)
T1 construct: cell based immuno-fluorescence assay using the LNCaP prostate epithelial cell line; endogenous in cells; host or cells: LNCaP clone FGC (ATCC CRL-1740)
T1 sequence (P10275 1-920 T878A): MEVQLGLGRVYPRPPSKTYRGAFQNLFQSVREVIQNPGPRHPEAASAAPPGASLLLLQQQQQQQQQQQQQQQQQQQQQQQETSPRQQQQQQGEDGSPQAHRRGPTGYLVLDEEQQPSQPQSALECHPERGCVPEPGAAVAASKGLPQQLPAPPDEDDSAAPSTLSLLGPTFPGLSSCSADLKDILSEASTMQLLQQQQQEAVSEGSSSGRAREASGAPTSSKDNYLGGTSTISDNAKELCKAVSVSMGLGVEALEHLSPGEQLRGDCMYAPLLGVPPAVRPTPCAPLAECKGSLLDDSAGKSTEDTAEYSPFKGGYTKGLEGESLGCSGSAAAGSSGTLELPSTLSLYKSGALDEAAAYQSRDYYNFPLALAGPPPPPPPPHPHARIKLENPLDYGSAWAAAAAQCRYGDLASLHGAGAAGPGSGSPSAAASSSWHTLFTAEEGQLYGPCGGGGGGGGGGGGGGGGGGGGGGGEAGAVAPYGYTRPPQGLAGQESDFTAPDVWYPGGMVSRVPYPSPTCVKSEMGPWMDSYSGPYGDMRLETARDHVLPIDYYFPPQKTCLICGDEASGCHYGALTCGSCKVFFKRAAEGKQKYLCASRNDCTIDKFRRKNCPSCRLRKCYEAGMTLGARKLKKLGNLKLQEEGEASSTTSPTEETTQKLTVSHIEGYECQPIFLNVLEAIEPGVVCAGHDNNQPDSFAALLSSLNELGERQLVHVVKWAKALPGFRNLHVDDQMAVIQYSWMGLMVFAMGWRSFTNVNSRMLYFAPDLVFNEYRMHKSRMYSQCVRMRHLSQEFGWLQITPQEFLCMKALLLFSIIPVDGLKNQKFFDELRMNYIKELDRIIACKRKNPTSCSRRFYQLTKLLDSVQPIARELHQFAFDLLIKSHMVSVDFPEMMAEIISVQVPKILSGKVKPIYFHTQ
Assay: LNCaP Androgen Receptor Down-regulation Cell Assay (immunofluorescence end point)
Assay type: cell-based
Conditions: LNCaP prostate carcinoma cells, compound incubation 20-22 hours, 50% reduction of the AR signal; read-out: Androgen Receptor Down-regulation Assay (a) IC50/μM
Outline: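 AR loss reported as IC50 from curve fits of fluorescence dose-response data, with AR immunostained and read by laser-scanning cytometry. Compound exposure was 20-22 h at 37° C in LNCaP cells grown in 5% charcoal-stripped FBS and plated overnight beforehand.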

Compound	DC50 [µM]
CN(CCO)C(=O)c1ccc(OC2CCN(c3ccc4nnc(C(F)(F)F)n4n3)CC2)cc1 [Example 412, N-(2-hydroxyethyl)-N-methyl-4-[[1-[3-(trifluoromethyl)-[1,2,4]triazolo[4,3-b]pyridazin-6-yl]piperidin-4-yl]oxy]benzamide]	9.1
O=C(NCCN1CCCC1)c1ccc(OC2CCN(c3ccc4nnc(C(F)(F)F)n4n3)CC2)cc1 [Example 413]	1.9
CN1CCN(C(=O)c2ccc(OC3CCN(c4ccc5nnc(C(F)(F)F)n5n4)CC3)cc2)CC1 [Example 414]	> 10
O=C(c1ccc(OC2CCN(c3ccc4nnc(C(F)(F)F)n4n3)CC2)cc1)N1CC[C@@H](O)C1 [Example 418]	> 14
O=C(NCCN1CCOCC1)c1ccc(OC2CCN(c3ccc4nnc(C(F)(F)F)n4n3)CC2)cc1 [Example 424]	2.2
CN1CCC(NC(=O)c2ccc(OC3CCN(c4ccc5nnc(C(F)(F)F)n5n4)CC3)cc2)CC1 [Example 427]	4.3
CN(C)CCCOc1ccc(OC2CCN(c3ccc4nnc(C(F)(F)F)n4n3)CC2)cc1 [Example 430, N,N-dimethyl-3-[4-[[1-[3-(trifluoromethyl)-[1,2,4]triazolo[4,3-b]pyridazin-6-yl]piperidin-4-yl]oxy]phenoxy]propan-1-amine]	1.7
FC(F)(F)c1nnc2ccc(N3CCC(Oc4ccc(OCCN5CCCC5)cc4)CC3)nn12 [Example 431]	1.5
FC(F)(F)c1nnc2ccc(N3CCC(Oc4ccc(OCCCN5CCNCC5)cc4)CC3)nn12 [Example 433]	0.9
CN1CCN(CCCOc2ccc(OC3CCN(c4ccc5nnc(C(F)(F)F)n5n4)CC3)cc2)CC1 [Example 437]	0.53
FC(F)(F)c1nnc2ccc(N3CCC(Oc4ccc(OCc5ccon5)cc4)CC3)nn12 [Example 438]	1.6
FC(F)(F)c1nnc2ccc(N3CCC(Oc4ccc(OCc5cnco5)cc4)CC3)nn12 [Example 439]	0.48
CN1CCN(CCOc2ccc(OC3CCN(c4ccc5nnc(C(F)(F)F)n5n4)CC3)cc2)CC1 [Example 440]	2.3
Cn1nccc1CCOc1ccc(OC2CCN(c3ccc4nnc(C(F)(F)F)n4n3)CC2)cc1 [Example 441]	0.22
Cc1cc(COc2cccc(OC3CCN(c4ccc5nnc(C(F)(F)F)n5n4)CC3)c2)no1 [Example 446]	0.7
N#Cc1ccc(OC2CCN(c3ccc4nnc(C(F)(F)F)n4n3)CC2)cn1 [Example 448, 5-[[1-[3-(trifluoromethyl)-[1,2,4]triazolo[4,3-b]pyridazin-6-yl]piperidin-4-yl]oxy]pyridine-2-carbonitrile]	6.3

Now from value to molecule:

DC50 [µM]	Compound
2.7	COCCNC(=O)c1ccc(OC2CCN(c3ccc4nnc(C(F)(F)F)n4n3)CC2)cc1 [Example 416]
4.6	CN(C)C(=O)c1ccc(OC2CCN(c3ccc4nnc(C(F)(F)F)n4n3)CC2)cc1 [Example 417]
5.9	O=C(c1ccc(OC2CCN(c3ccc4nnc(C(F)(F)F)n4n3)CC2)cc1)N1CCOCC1 [Example 420]
3.6	COCCN(C)C(=O)c1ccc(OC2CCN(c3ccc4nnc(C(F)(F)F)n4n3)CC2)cc1 [Example 425]
2.6	CN(C)CCNC(=O)c1ccc(OC2CCN(c3ccc4nnc(C(F)(F)F)n4n3)CC2)cc1 [Example 429]
0.98	CN(C)CCOc1ccc(OC2CCN(c3ccc4nnc(C(F)(F)F)n4n3)CC2)cc1 [Example 435]
0.75	CN1CCC(Oc2ccc(OC3CCN(c4ccc5nnc(C(F)(F)F)n5n4)CC3)cc2)CC1 [Example 436]
0.44	Cn1nccc1COc1ccc(OC2CCN(c3ccc4nnc(C(F)(F)F)n4n3)CC2)cc1 [Example 442]
1.5	CN(C)CCCOc1cccc(OC2CCN(c3ccc4nnc(C(F)(F)F)n4n3)CC2)c1 [Example 443]
1.6	FC(F)(F)c1nnc2ccc(N3CCC(Oc4cccc(OCCCN5CCNCC5)c4)CC3)nn12 [Example 445]
